# Source: patent publication US20240350522A1, “HYGROMYCIN A FOR TREATMENT OF DISEASES AND INFECTIONS” (FLIGHTPATH BIOSCIENCES, INC., priority 2021, published 2024)
# Several values for one entry are separate records, joined by “and”; a condition that tells them apart may be missing. Equal entries are not always repeated. Where two headings read alike, the source gives them in different places.
# Tests used:
# Format in all cases: cell-based
# Treponema denticola = experiment: MBC of Hyg A against Treponema denticola strains; settings: for MBC: Treponema denticola
# [1] = tested on: Streptococcus salivarius ATCC13419; experiment: MBC of Hyg A against S. salivarius
# [2] = tested on: Treponema pallidum pallidum Chicago strain; experiment: Treated treponemes seeded onto no-antibiotic plate, 7 more days, T47 qPCR (treponemicidal activity); settings: for Mean T47 copies/μL, Avg. / Mean T47 copies/μL, Expt. values: seeded on no antibiotic plate; for Mean T47 copies/μL, Avg.: average; for Mean T47 copies/μL, Expt. values: replicate wells
# [3] = tested on: Treponema pallidum pallidum SS14 strain; experiment: as above; settings: for Mean T47 copies/μL, Avg. / Mean T47 copies/μL, Expt. values: seeded on no antibiotic plate; for Mean T47 copies/μL, Avg.: average; for Mean T47 copies/μL, Expt. values: replicate wells
# [4] = tested on: Treponema pallidum pallidum SS14 strain; experiment: T. pallidum susceptibility assay, co-culture with Sf1Ep cells, tp0574 (T47) qPCR after 7 days; settings: for Mean T47 copies/μL, Average / Mean T47 copies/μL, experimental values: 7 days; for Mean T47 copies/μL, Average: average of 8 replicates; for Mean T47 copies/μL, experimental values: replicate wells
# [5] = tested on: Porphyromonas gingivalis (ATCC 33277); experiment: MIC of Hyg A against P. gingivalis (OD600, dark field microscopy)
# [6] = tested on: Porphyromonas gingivalis (ATCC 33277); experiment: MBC of Hyg A against P. gingivalis
# [7] = pre-treated with Hygromycin A 0.03 μg/ml
# [8] = pre-treated with Hygromycin A 0.06 μg/ml
# [9] = pre-treated with Hygromycin A 0.12 μg/ml
# [10] = pre-treated with Hygromycin A 0.24 μg/ml
# [11] = pre-treated with Hygromycin A 0.48 μg/ml
# [12] = pre-treated with Hygromycin A 0.96 μg/ml
# [13] = pre-treated with Hygromycin A 1.92 μg/ml
# [14] = pre-treated with Hygromycin A 3.84 μg/ml
compound,measurement,setting,value
"CC(=O)[C@H]1O[C@@H](Oc2ccc(/C=C(\C)C(=O)N[C@@H]3[C@H](O)[C@@H](O)[C@H]4OCO[C@H]4[C@@H]3O)cc2O)[C@@H](O)[C@@H]1O [Hyg A, Hygromycin A]",MBC,"Treponema denticola; T. denticola 35405, experiment 2, read-out: MBC (μg/ml) 2",0.5 µg/mL
same,MBC,"Treponema denticola; T. denticola ASLM, experiment 1, read-out: MBC (μg/ml) 1",1 µg/mL
same,MBC,"Treponema denticola; T. denticola ASLM, experiment 2, read-out: MBC (μg/ml) 2",1 µg/mL
same,MBC,"Treponema denticola; T. denticola H1-T, experiment 1, read-out: MBC (μg/ml) 1",0.5 µg/mL
same,MBC,"Treponema denticola; T. denticola H1-T, experiment 2, read-out: MBC (μg/ml) 2",0.5 µg/mL
same,MBC,"Treponema denticola; T. denticola OTK, experiment 1, read-out: MBC (μg/ml) 1",1 µg/mL
same,MBC,"Treponema denticola; T. denticola OTK, experiment 2, read-out: MBC (μg/ml) 2",1 µg/mL
same,MBC,"Treponema denticola; T. denticola SP44, experiment 1, read-out: MBC (μg/ml) 1",5 µg/mL
same,MBC,"Treponema denticola; T. denticola SP44, experiment 2, read-out: MBC (μg/ml) 2",2 µg/mL
same,MBC,"Treponema denticola; T. denticola US Trep, experiment 1, read-out: MBC (μg/ml) 1",1 µg/mL
same,MBC,"Treponema denticola; T. denticola US Trep, experiment 2, read-out: MBC (μg/ml) 2",1 µg/mL
same,ratio of MBC/MIC,Treponema denticola; average for all T. denticola strains,2.3
same,MIC:MBC ratio,[1]; S. salivarius 13419,10
same,MBC,"[1]; Streptococcus salivarius ATCC13419, read-out: MBC",10 µg/mL
same,MBC,"[1]; Streptococcus salivarius, ATCC13419, S. salivarius 13419, experiment 1, read-out: MBC (μg/ml) 1",10 µg/mL
same,MBC,"[1]; Streptococcus salivarius, ATCC13419, S. salivarius 13419, experiment 2, read-out: MBC (μg/ml) 2",10 µg/mL
same,concentration with treponemicidal activity,[2]; Chicago strain seeded onto no-antibiotic control plate,≥ 0.12 µg/mL
same,"Mean T47 copies/μL, Avg.",[2]; [7],14552 copies/μL
same,"Mean T47 copies/μL, Expt. values",[2]; [7],10276 copies/μL and 18338 copies/μL and 20335 copies/μL and 9952 copies/μL
same,"Mean T47 copies/μL, Avg.",[2]; [8],1000 copies/μL
same,"Mean T47 copies/μL, Expt. values",[2]; [8],744 copies/μL and 560 copies/μL and 2087 copies/μL and 892 copies/μL
same,"Mean T47 copies/μL, Avg.",[2]; [9],28 copies/μL
same,"Mean T47 copies/μL, Expt. values",[2]; [9],13 copies/μL and 19 copies/μL and 39 copies/μL and 22 copies/μL
same,"Mean T47 copies/μL, Avg.",[2]; [10],32 copies/μL
same,"Mean T47 copies/μL, Expt. values",[2]; [10],17 copies/μL and 41 copies/μL and 22 copies/μL and 52 copies/μL
same,"Mean T47 copies/μL, Avg.",[2]; [11],26 copies/μL
same,"Mean T47 copies/μL, Expt. values",[2]; [11],0 copies/μL and 32 copies/μL (2×) and 23 copies/μL and 22 copies/μL
same,"Mean T47 copies/μL, Avg.",[2]; [12],24 copies/μL
same,"Mean T47 copies/μL, Expt. values",[2]; [12],14 copies/μL and 23 copies/μL and 31 copies/μL and 27 copies/μL and 7 copies/μL
same,"Mean T47 copies/μL, Avg.",[2]; [13],23 copies/μL
same,"Mean T47 copies/μL, Expt. values",[2]; [13],28 copies/μL and 8 copies/μL and 23 copies/μL and 36 copies/μL and 34 copies/μL
same,"Mean T47 copies/μL, Avg.",[2]; [14],27 copies/μL
same,"Mean T47 copies/μL, Expt. values",[2]; [14],37 copies/μL and 24 copies/μL and 27 copies/μL and 41 copies/μL and 13 copies/μL
same,concentration with treponemicidal activity,[3]; SS14 strain seeded onto no-antibiotic control plate,≥ 0.12 µg/mL
same,"Mean T47 copies/μL, Avg.",[3]; [7],2232 copies/μL
same,"Mean T47 copies/μL, Expt. values",[3]; [7],1649 copies/μL and 3690 copies/μL and 3831 copies/μL and 2114 copies/μL and 445 copies/μL and 1541 copies/μL and 2079 copies/μL and 2511 copies/μL
same,"Mean T47 copies/μL, Avg.",[3]; [8],199 copies/μL
same,"Mean T47 copies/μL, Expt. values",[3]; [8],137 copies/μL and 310 copies/μL and 274 copies/μL and 99 copies/μL and 71 copies/μL and 159 copies/μL and 200 copies/μL and 343 copies/μL
same,"Mean T47 copies/μL, Avg.",[3]; [9],20 copies/μL
same,"Mean T47 copies/μL, Expt. values",[3]; [9],17 copies/μL and 14 copies/μL and 45 copies/μL and 0 copies/μL and 22 copies/μL and 25 copies/μL and 15 copies/μL and 24 copies/μL
same,"Mean T47 copies/μL, Avg.",[3]; [10],13 copies/μL
same,"Mean T47 copies/μL, Expt. values",[3]; [10],35 copies/μL and 16 copies/μL (2×) and 6 copies/μL and 5 copies/μL and 21 copies/μL and 7 copies/μL and 0 copies/μL
same,"Mean T47 copies/μL, Avg.",[3]; [11],9 copies/μL
same,"Mean T47 copies/μL, Expt. values",[3]; [11],2 copies/μL and 0 copies/μL (2×) and 16 copies/μL and 10 copies/μL and 31 copies/μL and 5 copies/μL and 6 copies/μL
same,"Mean T47 copies/μL, Avg.",[3]; [12],7 copies/μL
same,"Mean T47 copies/μL, Expt. values",[3]; [12],8 copies/μL and 11 copies/μL and 0 copies/μL (2×) and 3 copies/μL (2×) and 16 copies/μL and 13 copies/μL
same,"Mean T47 copies/μL, Avg.",[3]; [13],13 copies/μL
same,"Mean T47 copies/μL, Expt. values",[3]; [13],5 copies/μL (2×) and 7 copies/μL and 17 copies/μL and 19 copies/μL (2×) and 8 copies/μL and 22 copies/μL
same,"Mean T47 copies/μL, Avg.",[3]; [14],19 copies/μL
same,"Mean T47 copies/μL, Expt. values",[3]; [14],19 copies/μL and 25 copies/μL and 21 copies/μL (2×) and 18 copies/μL and 7 copies/μL and 15 copies/μL and 22 copies/μL
same,"Mean T47 copies/μL, Average",[4]; Hyg A 0.03 μg/ml,2768 copies/μL
same,"Mean T47 copies/μL, Average",[4]; Hyg A 0.06 μg/ml,916 copies/μL
same,"Mean T47 copies/μL, experimental values",[4]; Hyg A 0.06 μg/ml,713 copies/μL and 883 copies/μL and 851 copies/μL and 1260 copies/μL
same,"Mean T47 copies/μL, Average",[4]; Hyg A 0.12 μg/ml,737 copies/μL
same,"Mean T47 copies/μL, experimental values",[4]; Hyg A 0.12 μg/ml,372 copies/μL and 629 copies/μL and 710 copies/μL and 787 copies/μL and 926 copies/μL and 951 copies/μL and 965 copies/μL and 552 copies/μL
same,"Mean T47 copies/μL, Average",[4]; Hyg A 0.24 μg/ml,516 copies/μL
same,"Mean T47 copies/μL, experimental values",[4]; Hyg A 0.24 μg/ml,510 copies/μL and 491 copies/μL and 572 copies/μL and 587 copies/μL and 564 copies/μL and 600 copies/μL and 441 copies/μL and 360 copies/μL
same,"Mean T47 copies/μL, Average",[4]; Hyg A 0.48 μg/ml,426 copies/μL
same,"Mean T47 copies/μL, experimental values",[4]; Hyg A 0.48 μg/ml,327 copies/μL and 435 copies/μL and 503 copies/μL and 508 copies/μL and 487 copies/μL and 453 copies/μL and 342 copies/μL and 352 copies/μL
same,"Mean T47 copies/μL, Average",[4]; Hyg A 0.96 μg/ml,319 copies/μL
same,"Mean T47 copies/μL, experimental values",[4]; Hyg A 0.96 μg/ml,150 copies/μL and 307 copies/μL and 435 copies/μL and 361 copies/μL and 405 copies/μL and 327 copies/μL and 299 copies/μL and 268 copies/μL
same,"Mean T47 copies/μL, Average",[4]; Hyg A 1.92 μg/ml,323 copies/μL
same,"Mean T47 copies/μL, Average",[4]; Hyg A 3.84 μg/ml,275 copies/μL
same,lowest concentration effective against growth (no significant difference to higher concentrations),"[4]; SS14 strain, ANOVA p<0.05",1.92 µg/mL
same,MIC,"[5]; ATCC33277, P. gingivalis 33277, experiment 1, read-out: MIC (μg/ml) 1",5 µg/mL
same,MIC,"[5]; ATCC33277, P. gingivalis 33277, experiment 2, read-out: MIC (μg/ml) 2",5 µg/mL
same,MBC,"[6]; ATCC33277, P. gingivalis 33277, experiment 1, read-out: MBC (μg/ml) 1",> 5 µg/mL
same,MBC,"[6]; ATCC33277, P. gingivalis 33277, experiment 2, read-out: MBC (μg/ml) 2",> 5 µg/mL
